Our source for the IC50 and DC50 values is US12226424B2, “Target protein degradation compounds, their anti-tumor use, their intermediates and use of intermediates” (ShanghaiTech University, priority 2018, dated 2025).

For experiment [1], the system named is MDA-MB-436 cells (PARP-positive). Briefly: Half inhibitory concentration (IC50) on PARP-positive tumor cells, CCK-8, MDA-MB-436. The format is cell-based. Conditions: Homo sapiens, 72 hours, read-out: IC50 (μM)/MDA-MB-436 cell line. Here is the method:
PARP-positive cells MDA-MB-436 cells (human breast cancer cells) were purchased from the American Type Culture Collection (ATCC).
The cells used in this present disclosure were cultured in a 37° C. incubator containing 5% CO2. The complete cell culture medium was DMEM medium with 10% fetal bovine serum, and the final concentrations of penicillin and streptomycin were 100 U/mL, respectively. All cells were tested negative for mycoplasma with mycoplasma detection kit before the experiment.
Determination of Half Inhibitory Concentration (IC50) of PROTAD Compounds on Tumor Cells
MDA-MB-436 cells were seeded in 100 μL DMEM complete medium at a density of 3500 cells/well. 100 μL of the inoculated cells were treated with 0.5 μL diluted PROTAD compounds of the present disclosure to be tested at 10 successively decreasing concentrations (starting at the highest concentration of 50 μM; 3-fold serial dilutions). After the cells were treated with the tested drugs for 72 hours, cell viability was determined according to the CCK-8 reagent operating instructions. The negative control was DMSO, and the positive control was a commercial inhibitor. After CCK-8 treatment for 2 h, the value of O.D.450 was measured using a microplate reader.

Experiment [2] relates to CDK4/6 protein. Nature of the experiment: Western-blot determination of CDK4/6 protein degradation (DC50) in T-47D cells. It is filed as cell-based, human. The note with it: 24 h drug treatment, read-out: DC50(nM)/T-47D cell line.
The test system of experiment [3] is CDK4/6 protein. Nature of the experiment: Western-blot determination of CDK4/6 protein degradation (DC50) in Jurkat cells. It is filed as cell-based. The note with it: read-out: DC50(nM)/Jurkat cell line.
For the next experiment, the system named is MDA-MB-231 cells. Briefly: Half inhibitory concentration (IC50) on BET-expressing tumor cells, CCK-8, MDA-MB-231. It is filed as cell-based. The note with it: Homo sapiens, 48/72 h, read-out: IC50 (nM)/MDA-MB-231 cell line. Here is the method:
(§1) BET-expressing cells MV-4-11 cells (human B granulocytic leukemia cells), MDA-MB-231 cells (human breast cancer cells), MDA-MB-468 cells (human breast cancer cells), MDA-MB-453 Cells (human breast cancer cells), MM1S cells (myeloma (immunoglobulin A lambda), B lymphoblasts) and SR cells (human large cell immunoblast lymphoma) were purchased from the American Type Culture Collection (ATCC).
(§2) The cells used in this present disclosure were cultured in a 37° C. incubator containing 5% CO2. The complete cell culture medium was RPMI 1640/IMDM/DMEM medium with 10% fetal bovine serum, and the final concentrations of penicillin and streptomycin were 100 U/mL, respectively. All cells were tested negative for mycoplasma with mycoplasma detection kit before the experiment.
(§3) Determination of the Half Inhibitory Concentration (IC50) of PROTAD Compounds on Tumor Cells
(§4) MV-411 cells, MM1S cells and SR cells were seeded in 100 μL IMDM/RPMI1640/DMEM complete medium at a density of 15000/10000 cells/well; MDA-MB-231 cells, MDA-MB-468 cells, and MDA-MB453 cells were seeded in 100 μL IMDM/RPMI1640/DMEM complete medium at a density of 3000/5000 cells/well, respectively. 100 μL of the inoculated cells were treated with 0.5 μL diluted PROTAD compounds of the present disclosure to be tested at 10 successively decreasing concentrations (starting at the highest concentration of 10 μM; 5-fold serial dilutions). After the cells were treated with the tested drugs 48/72 h, the cell viability was determined according to the CCK-8 reagent manual. The negative control was DMSO, and the positive control was a commercial inhibitor. After CCK-8 treatment for 2 h, the value of O.D.450 was measured using a microplate reader.

For a further experiment, the system named is MM1S cells. Briefly: Half inhibitory concentration (IC50) on BET-expressing tumor cells, CCK-8, MM1S. The note with it: Homo sapiens, MM1.S, 48/72 h, read-out: IC50 (nM)/MM1S cell line. The format is cell-based. Here is the method:
as §1, §2, §3, §4

The subject of a further experiment is MDA-MB-453 cells. Nature of the experiment: Half inhibitory concentration (IC50) on BET-expressing tumor cells, CCK-8, MDA-MB-453. The format is cell-based, human. Conditions: 48/72 h, read-out: IC50 (nM)/MDA-MB-453 cell line. The protocol:
as §1, §2, §3, §4

The subject of another experiment is MV-4-11 cells. Briefly: Half inhibitory concentration (IC50) on BET-expressing tumor cells, CCK-8, MV-4-11. The note with it: Homo sapiens, MV4-11, read-out: IC50 (nM)/MV-4-11 cell line, MV-4-11 cells, 48/72 h, CCK-8.
Another experiment relates to MDA-MB-468 cells. Nature of the experiment: Half inhibitory concentration (IC50) on BET-expressing tumor cells, CCK-8, MDA-MB-468. The note with it: Homo sapiens, 48/72 h, read-out: IC50 (nM)/MDA-MB-468 cell line. It is filed as cell-based. The protocol: as §1, §2, §3, §4
The target of another experiment is BRD2 (Homo sapiens, UniProt P25440). Briefly: Western-blot half-degradation concentration (DC50) / degradation of BRD2 in MV-4-11 cells. The format is cell-based. The note with it: 24 hours, Western-blot, read-out: DC50 (nM)/MV-4-11 cell line BRD2 degradation. The text has this:
Western-Blot Determination of the Half-Degradation Concentration (DC50) of the PROTAD Compounds on the Target Proteins
The supernatant was aspirated as total cell protein extracted.

The next experiment relates to HEK293 cells. Briefly: Proliferation inhibition (IC50) on non-BCR-ABL-positive HEK293 cells. The note with it: Homo sapiens, HEK293, read-out: IC50 (nM)/HEK293 cell line.
For experiment [4], the system named is K562 cells (BCR-ABL positive). Briefly: Half inhibitory concentration (IC50) on tumor cells, CCK-8, K562. Conditions: Homo sapiens, K562, 48 h, read-out: IC50 (nM)/K562 cell line.
Protocol: K562 cells were seeded in 100 μL of RPMI1640 complete medium at a density of 20,000 cells/well. 100 μL of the inoculated cells were treated with 100 μL diluted PROTAD compound of the present disclosure to be tested at 9 successively decreasing concentrations (starting at the highest concentration of 10 μM; 3-fold serial dilutions). After the cells were treated with the tested drugs for 48 hours, the cell viability determination was performed in accordance with CCK-8 reagent operating instructions. The negative control was DMSO, and positive control was a commercial inhibitor. After CCK-8 treatment for 2 h, the value of O.D.450 was measured using a microplate reader.
A further experiment has as its system U937 cells. Nature of the experiment: Proliferation inhibition (IC50) on non-BCR-ABL-positive U937 cells. The note with it: Homo sapiens, U-937, read-out: IC50 (nM)/U937 cell line.
A further experiment has as its target BCR-ABL (Homo sapiens, UniProt P00519). Nature of the experiment: Western-blot half-degradation concentration (DC50) / degradation of BCR-ABL in K562 cells. The note with it: read-out: DC50 (nM)/K562 cell line, BCR-ABL protein degradation, 24 hours, Western-blot.
[5] abbreviates: Homo sapiens, MDA-MB-453, MDA-MB-453 cells.

Like-named read-outs stand apart in the source and are kept apart here.

Chain of BRD2 (P25440 whole entry): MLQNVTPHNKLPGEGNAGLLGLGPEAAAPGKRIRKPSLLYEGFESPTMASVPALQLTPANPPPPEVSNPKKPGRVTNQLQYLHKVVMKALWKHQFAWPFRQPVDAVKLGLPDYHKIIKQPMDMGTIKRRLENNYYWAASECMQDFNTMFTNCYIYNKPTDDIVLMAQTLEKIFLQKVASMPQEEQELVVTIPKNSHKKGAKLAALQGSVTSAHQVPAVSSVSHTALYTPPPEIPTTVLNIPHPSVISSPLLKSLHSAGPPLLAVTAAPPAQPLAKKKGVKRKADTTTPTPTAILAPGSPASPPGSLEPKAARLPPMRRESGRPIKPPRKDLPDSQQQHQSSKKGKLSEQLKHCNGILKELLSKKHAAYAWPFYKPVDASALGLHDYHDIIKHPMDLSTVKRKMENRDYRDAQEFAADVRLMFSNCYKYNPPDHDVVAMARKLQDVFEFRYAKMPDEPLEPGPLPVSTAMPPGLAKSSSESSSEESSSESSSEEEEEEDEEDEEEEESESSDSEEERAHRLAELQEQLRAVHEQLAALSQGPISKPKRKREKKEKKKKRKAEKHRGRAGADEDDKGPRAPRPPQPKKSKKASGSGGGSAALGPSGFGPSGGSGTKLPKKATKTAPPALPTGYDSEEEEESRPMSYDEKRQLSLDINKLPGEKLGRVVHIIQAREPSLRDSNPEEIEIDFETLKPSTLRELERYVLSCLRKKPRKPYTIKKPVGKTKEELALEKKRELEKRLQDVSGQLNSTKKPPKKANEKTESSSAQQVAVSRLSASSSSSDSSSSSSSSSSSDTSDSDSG
Chain of BCR-ABL (P00519 with tags, fused parts or gaps): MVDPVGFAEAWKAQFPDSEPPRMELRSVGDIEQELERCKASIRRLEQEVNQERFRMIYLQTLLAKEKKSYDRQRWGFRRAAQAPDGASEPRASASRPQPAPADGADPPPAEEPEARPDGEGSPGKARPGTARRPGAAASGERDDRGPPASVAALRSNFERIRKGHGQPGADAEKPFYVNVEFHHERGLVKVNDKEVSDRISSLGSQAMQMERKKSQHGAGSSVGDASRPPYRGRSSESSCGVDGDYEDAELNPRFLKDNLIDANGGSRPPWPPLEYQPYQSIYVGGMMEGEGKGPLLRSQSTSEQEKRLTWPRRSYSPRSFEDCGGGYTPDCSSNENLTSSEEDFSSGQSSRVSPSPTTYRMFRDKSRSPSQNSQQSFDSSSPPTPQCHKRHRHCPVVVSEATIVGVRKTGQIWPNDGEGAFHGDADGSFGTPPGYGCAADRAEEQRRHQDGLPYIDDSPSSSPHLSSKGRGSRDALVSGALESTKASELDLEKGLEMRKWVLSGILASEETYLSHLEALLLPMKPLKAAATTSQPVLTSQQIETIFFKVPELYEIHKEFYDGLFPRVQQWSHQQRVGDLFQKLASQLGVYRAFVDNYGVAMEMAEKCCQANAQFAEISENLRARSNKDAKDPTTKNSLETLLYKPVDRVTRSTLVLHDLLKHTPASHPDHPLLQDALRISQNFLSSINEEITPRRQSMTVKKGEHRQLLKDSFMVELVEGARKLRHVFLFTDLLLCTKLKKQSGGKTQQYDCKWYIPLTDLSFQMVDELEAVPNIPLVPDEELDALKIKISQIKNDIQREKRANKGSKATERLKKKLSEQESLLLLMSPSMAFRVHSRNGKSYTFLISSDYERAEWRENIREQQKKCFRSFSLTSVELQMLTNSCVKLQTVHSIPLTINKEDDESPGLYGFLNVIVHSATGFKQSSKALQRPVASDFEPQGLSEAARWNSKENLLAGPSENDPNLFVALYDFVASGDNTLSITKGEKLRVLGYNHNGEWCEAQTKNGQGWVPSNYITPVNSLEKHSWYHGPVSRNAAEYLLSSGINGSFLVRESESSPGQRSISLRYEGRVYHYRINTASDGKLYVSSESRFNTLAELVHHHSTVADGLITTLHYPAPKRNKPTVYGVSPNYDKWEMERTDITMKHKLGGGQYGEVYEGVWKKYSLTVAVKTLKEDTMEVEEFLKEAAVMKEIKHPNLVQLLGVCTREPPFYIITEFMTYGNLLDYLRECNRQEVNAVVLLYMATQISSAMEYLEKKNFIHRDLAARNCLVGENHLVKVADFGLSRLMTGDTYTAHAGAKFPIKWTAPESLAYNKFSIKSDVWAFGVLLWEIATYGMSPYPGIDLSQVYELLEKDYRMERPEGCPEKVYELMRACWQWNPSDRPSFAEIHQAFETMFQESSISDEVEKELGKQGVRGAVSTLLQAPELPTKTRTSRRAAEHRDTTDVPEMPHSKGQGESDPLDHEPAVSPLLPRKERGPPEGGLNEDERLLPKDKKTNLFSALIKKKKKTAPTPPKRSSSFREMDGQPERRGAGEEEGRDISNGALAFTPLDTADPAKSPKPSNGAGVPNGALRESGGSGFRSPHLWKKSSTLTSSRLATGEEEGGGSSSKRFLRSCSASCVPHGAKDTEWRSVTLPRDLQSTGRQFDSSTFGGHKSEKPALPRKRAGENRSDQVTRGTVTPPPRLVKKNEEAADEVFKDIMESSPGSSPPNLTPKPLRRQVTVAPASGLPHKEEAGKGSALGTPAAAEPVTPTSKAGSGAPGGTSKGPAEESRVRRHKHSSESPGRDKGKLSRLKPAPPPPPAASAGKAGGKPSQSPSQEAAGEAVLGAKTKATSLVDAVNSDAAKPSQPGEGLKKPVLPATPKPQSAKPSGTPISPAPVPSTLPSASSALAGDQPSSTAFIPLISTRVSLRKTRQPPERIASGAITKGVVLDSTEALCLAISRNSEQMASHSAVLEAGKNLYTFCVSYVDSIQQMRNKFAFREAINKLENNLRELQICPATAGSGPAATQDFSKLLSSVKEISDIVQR

Consider `NC(=O)c1cccc2cn(-c3ccc([C@@H]4CCCNC4)cc3)nc12` [Niraparib, reference compound], for which, in [1], the IC50 worked out at 1 µM.

With `O=C(c1cc(Cc2n[nH]c(=O)c3ccccc23)ccc1F)N1CCN(C(=O)C2CC2)CC1` [Olaparib, reference compound], the IC50 in [1] was found to be 2.31 µM.

As for `CNCc1ccc(-c2[nH]c3cc(F)cc4c3c2CCNC4=O)cc1` [Rucaparib, reference compound], the IC50 in experiment [1] was found to be 1.12 µM.

In the case of `CC(=O)c1c(C)c2cnc(Nc3ccc(N4CCN(C(=O)CSc5cccc6c5C(=O)N(C5CCC(=O)NC5=O)C6=O)CC4)cn3)nc2n(C2CCCC2)c1=O` (stereo not drawn) [SIAIS151046, 4-((2-(4-(6-((6-acetyl-8-cyclopentyl-5-methyl-7-oxo-7,8-dihydropyrido[2,3-d]pyrimidin-2-yl)amino)pyridin-3-yl)piperazin-1-yl)-2-oxoethyl)thio)-2-(2,6-dioxopiperidin-3-yl)isoindoline-1,3-dione], the DC50 in the experiment with CDK4/6 protein [2] and in the experiment on CDK4/6 protein [3] was 1 to 10 nM each time.

As to `Cc1sc2c(c1C)C(c1ccc(Cl)cc1)=N[C@@H](CC(=O)NCCCCSc1cccc3c1C(=O)N(C1CCC(=O)NC1=O)C3=O)c1nnc(C)n1-2` (stereo partly drawn) [SIAIS171037, 2-((S)-4-(4-chlorophenyl)-2,3,9-trimethyl-6H-thieno[3,2-f][1,2,4]triazolo[4,3-a][1,4]diazepin-6-yl)-N-(4-((2-(2,6-dioxopiperidin-3-yl)-1,3-dioxoisoindolin-4-yl)thio)butyl)acetamide], the IC50 amounted to 88 ± 38 nM in the experiment on MDA-MB-231 cells; 5.36 nM in the experiment with MM1S cells; 154 nM in the experiment on MDA-MB-453 cells (setting [5]); 226 nM in the experiment on MDA-MB-453 cells (MDA-MB-453 cells); 6.2 ± 4.1 nM in the experiment with MV-4-11 cells; 52.5 ± 24 nM in the experiment on MDA-MB-468 cells. On BRD2, the DC50 is less than 0.4 nM.

In the case of `Cc1sc2c(c1C)C(c1ccc(Cl)cc1)=N[C@@H](CC(=O)NCCCCCSc1cccc3c1C(=O)N(C1CCC(=O)NC1=O)C3=O)c1nnc(C)n1-2` (stereo partly drawn) [SIAIS171038, 2-((S)-4-(4-chlorophenyl)-2,3,9-trimethyl-6H-thieno[3,2-f][1,2,4]triazolo[4,3-a][1,4]diazepin-6-yl)-N-(5-((2-(2,6-dioxopiperidin-3-yl)-1,3-dioxoisoindolin-4-yl)thio)pentyl)acetamide], the IC50 was 182 ± 89 nM with MDA-MB-231 cells; 7.77 nM with MM1S cells; 135 nM with MDA-MB-453 cells (setting [5]); 230 nM in the experiment with MDA-MB-453 cells (MDA-MB-453 cells); 6.2 ± 3 nM in the experiment on MV-4-11 cells; 61 ± 8 nM in the experiment with MDA-MB-468 cells. For the same molecule, on BRD2, the DC50 was less than 0.4 nM.

For the molecule `Cc1nc(Nc2ncc(C(=O)Nc3c(C)cccc3Cl)s2)cc(N2CCN(C(=O)CCCCSc3cccc4c3CN(C3CCC(=O)NC3=O)C4=O)CC2)n1` (stereo not drawn) [SIAIS171108, N-(2-chloro-6-methylphenyl)-2-((6-(4-(5-((2-(2,6-dioxopiperidin-3-yl)-1-oxoisoindolin-4-yl)thio)pentanoyl)piperazin-1-yl)-2-methylpyrimidin-4-yl)amino)thiazole-5-carboxamide], the IC50 with HEK293 cells was more than 10000 nM; in experiment [4], 0.54 nM; in the experiment with U937 cells it was more than 10000 nM. At BCR-ABL, the DC50 is less than 1 nM.

Turning to `Cc1nc(Nc2ncc(C(=O)Nc3c(C)cccc3Cl)s2)cc(N2CCN(CCSc3cccc4c3C(=O)N(C3CCC(=O)NC3=O)C4=O)CC2)n1` (stereo not drawn) [SIAIS172056, N-(2-chloro-6-methylphenyl)-2-((6-(4-(2-((2-(2,6-dioxopiperidin-3-yl)-1,3-dioxoisoindolin-4-yl)thio)ethyl)piperazin-1-yl)-2-methylpyrimidin-4-yl)amino)thiazole-5-carboxamide], the IC50 was more than 10000 nM with HEK293 cells, 0.49 nM in [4] and more than 10000 nM in the experiment on U937 cells. Also, on BCR-ABL, the DC50 was less than 1 nM.

As to `O=C1CCC(N2C(=O)c3cccc(SCC(=O)N4CCN(C(=O)c5cc(Cc6n[nH]c(=O)c7ccccc67)ccc5F)CC4)c3C2=O)C(=O)N1` (stereo not drawn) [SIAIS180063, 2-(2,6-dioxopiperidin-3-yl)-4-((2-(4-(2-fluoro-5-((4-oxo-3,4-dihydrophthalazin-1-yl)methyl)benzoyl)piperazin-1-yl)-2-oxoethyl)thio)isoindoline-1,3-dione], in experiment [1], the IC50 was 6.45 µM.

For `O=C1CCC(N2C(=O)c3cccc(SCCC(=O)N4CCN(C(=O)c5cc(Cc6n[nH]c(=O)c7ccccc67)ccc5F)CC4)c3C2=O)C(=O)N1` (stereo not drawn) [SIAIS180064, 2-(2,6-dioxopiperidin-3-yl)-4-((3-(4-(2-fluoro-5-((4-oxo-3,4-dihydrophthalazin-1-yl)methyl)benzoyl)piperazin-1-yl)-3-oxopropyl)thio)isoindoline-1,3-dione], the IC50 in experiment [1] was determined as 5.78 µM.

Consider `O=C1CCC(N2C(=O)c3cccc(SCCCC(=O)N4CCN(C(=O)c5cc(Cc6n[nH]c(=O)c7ccccc67)ccc5F)CC4)c3C2=O)C(=O)N1` (stereo not drawn) [SIAIS180065, 2-(2,6-dioxopiperidin-3-yl)-4-((4-(4-(2-fluoro-5-((4-oxo-3,4-dihydrophthalazin-1-yl)methyl)benzoyl)piperazin-1-yl)-4-oxobutyl)thio)isoindoline-1,3-dione], for which the IC50 in experiment [1] was 3.82 µM.

With `O=C1CCC(N2C(=O)c3cccc(SCCCCC(=O)N4CCN(C(=O)c5cc(Cc6n[nH]c(=O)c7ccccc67)ccc5F)CC4)c3C2=O)C(=O)N1` (stereo not drawn) [SIAIS180066, 2-(2,6-dioxopiperidin-3-yl)-4-((5-(4-(2-fluoro-5-((4-oxo-3,4-dihydrophthalazin-1-yl)methyl)benzoyl)piperazin-1-yl)-5-oxopentyl)thio)isoindoline-1,3-dione], the IC50 in experiment [1] is 3.57 µM.

As for `O=C1CCC(N2C(=O)c3cccc(SCCCCCC(=O)N4CCN(C(=O)c5cc(Cc6n[nH]c(=O)c7ccccc67)ccc5F)CC4)c3C2=O)C(=O)N1` (stereo not drawn) [SIAIS180067, 2-(2,6-dioxopiperidin-3-yl)-4-((6-(4-(2-fluoro-5-((4-oxo-3,4-dihydrophthalazin-1-yl)methyl)benzoyl)piperazin-1-yl)-6-oxohexyl)thio)isoindoline-1,3-dione], the IC50 in experiment [1] was 2.9 µM.

As to `O=C1CCC(N2C(=O)c3cccc(SCCCCCCC(=O)N4CCN(C(=O)c5cc(Cc6n[nH]c(=O)c7ccccc67)ccc5F)CC4)c3C2=O)C(=O)N1` (stereo not drawn) [SIAIS180068, 2-(2,6-dioxopiperidin-3-yl)-4-((7-(4-(2-fluoro-5-((4-oxo-3,4-dihydrophthalazin-1-yl)methyl)benzoyl)piperazin-1-yl)-7-oxoheptyl)thio)isoindoline-1,3-dione], the IC50 in experiment [1] came out at 2.09 µM.
